Experimental data: patent publication US20130338222A1, “METHODS FOR C[…] MITES” (SYNGENTA CROP PROTECTION LLC, priority 2010, published 2013)

Test system: Varroa destructor
Assay: Varroa mite contact test on Potter-tower-treated Petri dishes, mortality after 72 h
Assay type: in vivo
Conditions: adult V. destructor, 20 mites (4 dishes of 5), assessed after 72 h
Text: Varroa mites came from bee colonies provided by a beekeeper. The mite population is kept in a dedicated apiary. For screening needs adults are collected on the same day as the beginning of experiment, either in beehive cells containing brood of worker bees or drones, or directly on bees emerging during collection.
Bee nymphs needed to feed adults of Varroa mites during experiments are choosen within the frames from which Varroa is also collected. They are collected at the stage of nymph with white or pink coloured eyes according methology described by Rembold et Kremer (Characterization of postembryonic developmental stages of the female castes of the honey bee, Apis mellifera L. Apidologie 11: 29-38).
3 cm diameter Petri dishes were used as confinement material of Varroa mites during experiments. Covers with wire mesh were put on the top of each Petri dish in order to avoid the mites to run away but also to keep favorable humidity for the bee nymph. […]
After treatment of Petri dishes, five (5) adults of V. destructor collected from the brood were placed in the petri dish. […] Mortality levels are assessed after 72 h (mites which are able to move their legs are considered as alive). […]

Structure (SMILES) | % mortality of Varroa (formulation SC240, concentration 0.8 microlitre) [%] | % mortality of Varroa (formulation SC240, concentration 1.25 microlitre) [%]
Cc1cc(C)c(C2=C(OC(=O)CC(C)(C)C)C3(CCCC3)OC2=O)c(C)c1 [spiromesifen, 3-mesityl-2-oxo-1-oxaspiro[4.4]non-3-en-4-yl 3,3-dimethylbutyrate] | 100 | –
CCC(C)(C)C(=O)OC1=C(c2ccc(Cl)cc2Cl)C(=O)OC12CCCCC2 [spirodiclofen, 3-(2,4-dichlorophenyl)-2-oxo-1-oxaspiro[4.5]dec-3-en-4-yl 2,2-dimethylbutyrate] | – | 100
